The target in the test is T1, human ALK5 (Homo sapiens, UniProt P36897).
T1 sequence (P36897 162-503): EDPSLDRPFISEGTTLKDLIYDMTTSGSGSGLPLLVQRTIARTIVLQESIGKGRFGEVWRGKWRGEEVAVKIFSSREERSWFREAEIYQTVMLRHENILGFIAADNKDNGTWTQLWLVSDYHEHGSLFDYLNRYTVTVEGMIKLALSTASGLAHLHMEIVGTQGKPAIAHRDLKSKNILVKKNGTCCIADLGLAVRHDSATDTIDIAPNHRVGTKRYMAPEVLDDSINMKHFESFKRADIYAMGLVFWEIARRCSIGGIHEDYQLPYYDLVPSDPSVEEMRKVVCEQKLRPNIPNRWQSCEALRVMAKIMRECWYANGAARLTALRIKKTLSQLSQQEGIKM
The test can be described thus: ALK5 Enzyme Assay 2 (fluorescence polarisation probe displacement). The settings on record: read-out: EAA2: activity (μM) using Enzyme Assay 2. Also on record: 6His tagged human ALK5 (residues162-503) was grown and purified from insect cells; 6His; made in house; host or cells: insect cells. The class given is binding. The procedure, abridged:
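Recombinant ALK5 (3 μg/mL) incubated with test compound in 50 mM HEPES pH7.4, 10 mM MgCl2, 1 mM DTT, 0.01% CHAPS. Displacement of a fluorescent quinazoline-based ALK5 probe (50 nM final) in presence of 1 μM ATP read by fluorescence polarisation.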
(Fluorescence polarisation rises when a labelled molecule tumbles more slowly, as on binding a larger partner.)

For the compound `Cc1ccc(Oc2ccnc(Nc3ccc(S(=O)(=O)NCCn4ccnc4)cc3)c2)c(C)n1` [Example 135, 4-{[4-(2,6-Dimethylpyridin-3-yl)oxypyridin-2-yl]amino}-N-(2-imidazol-1-ylethyl)benzenesulfonamide], the IC50 worked out at 0.12 µM. Then `COc1ccc(Nc2cc(Oc3ccc(C)nc3C)ccn2)cc1` [Example 90, 4-(2,6-Dimethylpyridin-3-yl)oxy-N-(4-methoxyphenyl)pyridin-2-amine], with 0.135 µM; and `CC(=O)NC1CCN(C(=O)c2cccc(Nc3cc(Oc4ccc(C)nc4C)ccn3)c2)C1` (centres unmarked) [Example 65, N-[1-(3-{[4-(2,6-Dimethylpyridin-3-yl)oxypyridin-2-yl]-amino}benzoyl)pyrrolidin-3-yl]acetamide], with 0.0457 µM.

Turning to `Cc1cc(Oc2ccnc(Nc3cccc(S(N)(=O)=O)c3)c2)c(-c2ccccn2)nc1C` [Example 104, 3-{[4-(5,6-Dimethyl-2-pyridin-2-ylpyridin-3-yl)oxypyridin-2-yl]-amino}benzenesulfonamide], the IC50 is 0.0121 µM. With `Cc1ccc(Oc2ccnc(Nc3cccc(C(=O)N4CCC4)c3)c2)c(C)n1` [Example 61, Azetidin-1-yl-(3-{[4-(2,6-dimethylpyridin-3-yl)oxypyridin-2-yl]-amino}phenyl)methanone], the IC50 is 0.0227 µM.

Turning to `Cc1ccc(Oc2ccnc(Nc3ccc(C(N)=O)cc3)c2)c(-c2ccc(F)cc2)n1` [Example 157, 4-({4-[2-(4-Fluorophenyl)-6-methylpyridin-3-yl]oxypyridin-2-yl}-amino)benzamide], the IC50 came out at 0.0474 µM.

In the case of `CC(=O)Nc1ccc(Nc2cc(Oc3ccc(C)nc3C)ccn2)cc1` [Example 123, N-(4-{[4-(2,6-Dimethylpyridin-3-yl)oxypyridin-2-yl]amino}-phenyl)acetamide], the IC50 was 0.0324 µM. On to `Cc1ccc(Oc2ccnc(Nc3ccc(CO)cc3)c2)c(-c2ccc(F)cc2)n1` [Example 158, [4-({4-[2-(4-Fluorophenyl)-6-methylpyridin-3-yl]oxypyridin-2-yl}-amino)phenyl]methanol], for which the IC50 was 0.0315 µM. The figure for `Cc1cc(Oc2ccnc(Nc3cccc(C(=O)N4CCCC(C)C4)c3)c2)c(-c2ccccn2)nc1C` (centres unmarked) [Example 101, (3-{[4-(5,6-Dimethyl-2-pyridin-2-ylpyridin-3-yl)oxypyridin-2-yl]-amino}phenyl)-(3-methylpiperidin-1-yl)methanone] is 0.0114 µM.

Consider `CCN(CC)S(=O)(=O)c1ccc(Nc2cc(Oc3ccc(C)nc3C)ccn2)cc1` [Example 116, 4-{[4-(2,6-Dimethylpyridin-3-yl)oxypyridin-2-yl]amino}-N,N-diethylbenzenesulfonamide], for which the IC50 was determined as 1.42 µM. Then `Cc1ccc(Oc2ccnc(Nc3cccc(CN4CCN(C(=O)NC5CCCCC5)CC4)c3)c2)c(C)n1` [Example 178, N-Cyclohexyl-4-{3-[4-(2,6-dimethylpyridin-3-yloxy)pyridin-2-ylamino]benzyl}piperazine-1-carboxamide], with 0.0237 µM. Then `Cc1ccc(Oc2ccnc(Nc3cccc(C(=O)NCc4ncc[nH]4)c3)c2)c(C)n1` [Example 63, 3-{[4-(2,6-Dimethylpyridin-3-yl)oxypyridin-2-yl]amino}-N-(1H-imidazol-2-ylmethyl)benzamide], with 0.00823 µM; and `Cc1ccc(Oc2ccnc(Nc3ccc(S(=O)(=O)NCCN4CCS(=O)(=O)CC4)cc3)c2)c(C)n1` [Example 132, 4-{[4-(2,6-Dimethylpyridin-3-yl)oxypyridin-2-yl]amino}-N-[2-(1,1-dioxo-1,4-thiazinan-4-yl)ethyl]benzenesulfonamide], with 0.142 µM; and `COc1ccc(-c2nc(C)ccc2Oc2ccnc(Nc3cc(OC)c(OC)c(OC)c3)c2)cn1` [Example 169, 4-(6′-Methoxy-6-methyl-2,3′-bipyridin-3-yloxy)-N-(3,4,5-trimethoxyphenyl)pyridin-2-amine], with 0.0751 µM. Turning to `COc1cc(Nc2cc(Oc3ccc(C)nc3-c3cncnc3)ccn2)cc(OC)c1OC` [Example 173, 4-(6-Methyl-2-pyrimidin-5-ylpyridin-3-yl)oxy-N-(3,4,5-trimethoxyphenyl)pyridin-2-amine], the IC50 was found to be 0.0966 µM.

Take `CNC(=O)CN1CCN(Cc2cccc(Nc3cc(Oc4ccc(C)nc4C)ccn3)c2)CC1` [Example 191]: the IC50 came to 0.0213 µM. Then `CCn1nccc1Nc1cc(Oc2ccc(C)nc2C)ccn1` [Example 88, 4-[(2,6-Dimethylpyridin-3-yl)oxy]-N-(1-ethyl-1H-pyrazol-5-yl)-pyridin-2-amine], with 0.205 µM; and `Cc1ccc(Oc2ccnc(Nc3cccc(CN4CCN(C(=O)C5CCOCC5)CC4)c3)c2)c(C)n1` [Example 186, {4-[(3-{[4-(2,6-Dimethylpyridin-3-yl)oxypyridin-2-yl]amino}-phenyl)methyl]piperazin-1-yl}-(oxan-4-yl)methanone], with 0.0238 µM; and `Cc1cc(Oc2ccnc(Nc3ccc(C(=O)NCCNC(=O)OC(C)(C)C)cc3)c2)c(-c2ccccn2)nc1C` [Example 198, tert-Butyl N-{2-[(4-{[4-(5,6-dimethyl-2-pyridin-2-ylpyridin-3-yl)oxypyridin-2-yl]amino}benzoyl)amino]ethyl}carbamate], with 0.0147 µM.

`Cc1ccc(Oc2ccnc(Nc3ccc(CO)cc3)c2)c(C)n1` [Example 154, (4-{[4-(2,6-Dimethylpyridin-3-yl)oxypyridin-2-yl]amino}phenyl)-methanol]: the IC50 came out at 0.0197 µM. Then `Cc1cc(Oc2ccnc(Nc3ccc(C(N)=O)cc3)c2)c(-c2ccccn2)nc1C` [Example 81, 4-{[4-(5,6-Dimethyl-2-pyridin-2-ylpyridin-3-yl)oxypyridin-2-yl]-amino}benzamide], with 0.0111 µM. The figure for `COc1cc(Nc2cc(Oc3ccc(C)nc3C3CCCO3)ccn2)cc(OC)c1OC` (centres unmarked) [Example 167, 4-[6-Methyl-2-(oxolan-2-yl)pyridin-3-yl]oxy-N-(3,4,5-trimethoxy-phenyl)pyridin-2-amine] is 0.0568 µM. As to `COc1cc(Nc2cc(Oc3cccnc3-c3ccccc3C(N)=O)ccn2)cc(OC)c1OC` [Example 221, 2-(3-{2-[(3,4,5-Trimethoxyphenyl)amino]pyridin-4-yl}oxypyridin-2-yl)benzamide], the IC50 was 3.02 µM. The figure for `COc1cc(Nc2cc(Oc3ccc(C)nc3-c3cccnc3)ccn2)cc(OC)c1OC` [Example 172, 4-(6-Methyl-2,3′-bipyridin-3-yloxy)-N-(3,4,5-trimethoxyphenyl)-pyridin-2-amine] is 0.061 µM; for `Cc1cc(Oc2ccnc(Nc3cccc(O)c3)c2)c(-c2ccccn2)nc1C` [Example 201, 3-{[4-(5,6-Dimethyl-2-pyridin-2-ylpyridin-3-yl)oxypyridin-2-yl]-amino}phenol] it is 0.00393 µM; for `Cc1ccc(Oc2ccnc(Nc3ccccc3)c2)c(C(=O)NCc2ccc[nH]2)n1` [Example 94, 3-(2-Anilinopyridin-4-yl)oxy-6-methyl-N-(1H-pyrrol-2-ylmethyl)-pyridine-2-carboxamide] it is 0.119 µM.

Regarding `Cc1ccc(Oc2ccnc(Nc3ccc(CC#N)cc3)c2)c(-c2ccc(F)cc2)n1` [Example 155, 2-[4-({4-[2-(4-Fluorophenyl)-6-methylpyridin-3-yl]oxypyridin-2-yl}amino)phenyl]acetonitrile], the IC50 worked out at 0.0816 µM.

For `Cc1ccc(Oc2ccnc(Nc3ccc(CO)cc3)c2)c(-c2ccco2)n1` [Example 163, [4-({4-[2-(Furan-2-yl)-6-methylpyridin-3-yl]oxypyridin-2-yl}-amino)phenyl]methanol], the IC50 stood at 0.00528 µM.

Turning to `Cc1ccc(Oc2ccnc(Nc3cccc(CN4CCN(C(=O)Nc5ccc(F)c(Cl)c5)CC4)c3)c2)c(C)n1` [Example 180, N-(3-Chloro-4-fluorophenyl)-4-[(3-{[4-(2,6-dimethylpyridin-3-yl)oxypyridin-2-yl]amino}phenyl)methyl]piperazine-1-carboxamide], the IC50 came out at 0.0896 µM. As to `Cc1ccc(Oc2ccnc(Nc3ccc(S(C)(=O)=O)cc3)c2)c(C)n1` [Example 124, 4-(2,6-Dimethylpyridin-3-yl)oxy-N-(4-methylsulfonylphenyl)-pyridin-2-amine], the IC50 worked out at 0.077 µM. Then `Cc1ccc(Oc2ccnc(Nc3ccc(S(N)(=O)=O)cc3)c2)c(-c2ccc(F)cc2)n1` [Example 156, 4-({4-[2-(4-Fluorophenyl)-6-methylpyridin-3-yl]oxypyridin-2-yl}amino)benzenesulfonamide], with 0.0454 µM; and `COc1cc(Nc2cc(Oc3ccc(C)nc3N3CCCC3)ccn2)cc(OC)c1OC` [Example 164, 4-(6-Methyl-2-(pyrrolidin-1-yl)pyridin-3-yloxy)-N-(3,4,5-trimethoxyphenyl)pyridin-2-amine], with 0.0275 µM. Then `Cc1ccc(Oc2ccnc(Nc3cccc(O)c3)c2)c(C)n1` [Example 126, 3-{[4-(2,6-Dimethylpyridin-3-yl)oxypyridin-2-yl]amino}phenol], with 0.0377 µM.

Take `COCCCNS(=O)(=O)c1ccc(Nc2cc(Oc3ccc(C)nc3C)ccn2)cc1` [Example 109, 4-{[4-(2,6-Dimethylpyridin-3-yl)oxypyridin-2-yl]amino}-N-(3-methoxypropyl)benzenesulfonamide]: the IC50 came out at 0.269 µM. Consider `Cc1ccc(Oc2ccnc(Nc3ccccc3)c2)c(C(=O)NCCc2ccccc2)n1` [Example 95, 3-(2-Anilinopyridin-4-yl)oxy-6-methyl-N-phenethylpyridine-2-carboxamide], for which the IC50 is 0.0209 µM.

Source of the values: patent publication US20090048269A1 (AstraZeneca AB, priority 2007, published 2009).
